The term MIC denotes the lowest concentration found to suppress growth. A word on the pKa: it is the negative logarithm of the acid dissociation constant. As usually defined, the Kd is the concentration at which binding is half-saturated. Read a high Kd as weaker binding. Usually ED50 stands for the midpoint of the dose-response relation.

The structures appear in SMILES notation. Values after ≈ are worked out from the molar mass of the structure shown. Active and inactive are the calls of the source. No cut-off for these calls is given here.

The values that follow come from ChEMBL document CHEMBL1139792, “Correlation of carboxylic acid pKa to protein binding and antibacterial activity of a novel class of bacterial translation inhibitors” (Bioorg Med Chem Lett, 2007).

Data set [1] has as its system Staphylococcus aureus. As to the kind of experiment: Antibacterial activity against Staphylococcus aureus UC9218. It counts as functional.
The test system of data set [2] is Staphylococcus aureus. The data set is described as follows: Antibacterial activity against Staphylococcus aureus UC9218 in presence of 5% human serum. It counts as functional.
Data set [3] can be described thus: Acid dissociation constant, pKa by pressure-assisted capillary electrophoresis method. It counts as physicochemical.
In data set [4] the target is T1, Albumin (Homo sapiens, UniProt P02768). As to the kind of experiment: Displacement of fluorescent dansyl sarcosine from human serum albumin site II on subdomain IIIA.
T1 sequence (P02768 whole entry): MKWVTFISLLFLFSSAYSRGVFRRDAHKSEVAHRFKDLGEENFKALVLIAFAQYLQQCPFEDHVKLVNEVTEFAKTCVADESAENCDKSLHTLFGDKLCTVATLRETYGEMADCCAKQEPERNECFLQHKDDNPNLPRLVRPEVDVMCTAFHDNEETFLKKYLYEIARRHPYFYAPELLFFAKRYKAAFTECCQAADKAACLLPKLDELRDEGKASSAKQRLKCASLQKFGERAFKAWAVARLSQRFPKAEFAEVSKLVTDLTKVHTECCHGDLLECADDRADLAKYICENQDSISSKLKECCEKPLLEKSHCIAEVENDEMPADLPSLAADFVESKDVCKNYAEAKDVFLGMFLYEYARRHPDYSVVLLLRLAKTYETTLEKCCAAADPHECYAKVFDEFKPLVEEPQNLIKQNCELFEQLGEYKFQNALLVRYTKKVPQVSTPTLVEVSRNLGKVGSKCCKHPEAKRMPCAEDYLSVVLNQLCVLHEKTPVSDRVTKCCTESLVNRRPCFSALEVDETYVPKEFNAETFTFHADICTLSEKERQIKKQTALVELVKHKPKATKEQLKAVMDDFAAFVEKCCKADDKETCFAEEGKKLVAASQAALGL
The subject of data set [5] is Staphylococcus aureus. The data set is described as follows: Antibacterial activity against Staphylococcus aureus UC9218 in presence of 10% human serum. It counts as functional.
The test system of data set [6] is Staphylococcus aureus. The data set is described as follows: Antibacterial activity against Staphylococcus aureus in mouse bacteremia model. It counts as functional.
The target in data set [7] is T1, Albumin. As to the kind of experiment: Binding to high affinity site of human serum albumin. It counts as ADME.

In the case of `O=C(Nc1ccc(Cl)cc1C(=O)O)c1cccc(S(=O)(=O)N2CCOCC2)c1`, the MIC came to 4 µg/mL (≈ 9.41 µM) in data set [1] and 32 µg/mL in data set [2]. In data set [3], this molecule came in with a pKa of 2.81. In data set [4], this molecule showed a Kd of 6.5 µM.
With `O=C(Nc1ccc(Br)cc1C(=O)O)c1ccc(S(=O)(=O)N2CCc3cc(Cl)ccc32)cc1`, the minimal inhibitory concentration (MIC) in data set [1] worked out at 0.125 µg/mL (≈ 0.233 µM); in data set [5], 64 µg/mL.
In the case of `O=C(Nc1ccc([N+](=O)[O-])cc1C(=O)O)c1cccc(S(=O)(=O)N2CCOCC2)c1`, the MIC in data set [1] was 4 µg/mL (≈ 9.19 µM); in data set [2] it was 16 µg/mL. In addition, the pKa in data set [3] is 3.44. In addition, in data set [4], the dissociation constant (Kd) worked out at 4.4 µM.
Regarding `N#Cc1ccc(NC(=O)c2ccc(S(=O)(=O)N3CCCC3)cc2)c(C(=O)O)c1`, the MIC is 1 µg/mL (≈ 2.5 µM) in data set [1] and 8 µg/mL in data set [5]. Besides, in data set [6], the result was inactive.
Regarding `Cc1ccc(NC(=O)c2cccc(S(=O)(=O)N3CCOCC3)c2)c(C(=O)O)c1`, the minimum inhibitory concentration (MIC) in data set [1] and in data set [2] was above 128 µg/mL in each case. Besides, the pKa in data set [3] turned out to be 3.36. Moreover, in data set [4], the affinity, expressed as Kd, was 7.5 µM.
For `N#Cc1ccc(NC(=O)c2ccc(S(=O)(=O)N3CCOCC3)cc2)c(C(=O)O)c1`, the minimum inhibitory concentration (MIC) in data set [1] was found to be 1 µg/mL (≈ 2.41 µM); in data set [5], 4 µg/mL; in data set [2] it was 2 µg/mL. In data set [3], the pKa was 2.56. The Kd in data set [4] was determined as 5.3 µM; in data set [7], 14 µM. Moreover, the median effective dose (ED50) in data set [6] is above 200 mg/kg.
As for `N#Cc1ccc(NC(=O)c2ccc(S(=O)(=O)N3CCc4cc(Cl)ccc43)cc2)c(C(=O)O)c1`, the results for the MIC in data set [1] and in data set [5] were 0.125 µg/mL (≈ 0.259 µM) and 8 µg/mL, respectively. The result in data set [6] was inactive.
Regarding `N#Cc1ccc(NC(=O)c2cc(SCc3ccccc3)on2)c(C(=O)O)c1`, the MIC in data set [1] was found to be 0.125 µg/mL (≈ 0.329 µM); in data set [5], 4 µg/mL.
Take `O=C(Nc1ccc(Br)cc1C(=O)O)c1cccc(S(=O)(=O)N2CCOCC2)c1`: the MIC was found to be 4 µg/mL (≈ 8.52 µM) in data set [1] and 32 µg/mL in data set [2]. In data set [3], this molecule displayed a pKa of 2.79. In data set [4], this molecule displayed an equilibrium dissociation constant (Kd) of 4.8 µM.
`O=C(Nc1ccc(F)cc1C(=O)O)c1cccc(S(=O)(=O)N2CCOCC2)c1`: the minimal inhibitory concentration (MIC) was found to be 128 µg/mL (≈ 313 µM) in data set [1] and 128 µg/mL in data set [2]. In data set [3], this molecule came in with a pKa of 2.92. This molecule also returned a Kd in data set [4] of 6.6 µM.
For the molecule `CCCN(CCC)S(=O)(=O)c1ccc(C(=O)Nc2cc3ccccc3cc2C(=O)O)cc1`, the MIC is 32 µg/mL (≈ 70.4 µM) in data set [1] and above 64 µg/mL in data set [5].
`COc1ccc(NC(=O)c2cccc(S(=O)(=O)N3CCOCC3)c2)c(C(=O)O)c1`: the minimum inhibitory concentration (MIC) in data set [1] and in data set [2] was above 128 µg/mL each time. The molecule further came in with a pKa in data set [3] of 3.12. The same molecule came in with a Kd in data set [4] of 8.1 µM.
`O=C(Nc1ccccc1C(=O)O)c1cccc(S(=O)(=O)N2CCOCC2)c1`: the MIC in data set [1] and in data set [2] was above 128 µg/mL in each case. Moreover, the pKa in data set [3] came to 3.18. Further, in data set [4], binding was put at a Kd of 6 µM.
